Laboratory results reported in US8987195B2 (priority 2012, dated 2015).
Like-named read-outs stand apart in the source and are kept apart here.

Key:
[1] = biological target: HCV NS3/4A protease genotype 1b (Hepatitis C virus genotype 1b, UniProt P26663); test: HCV NS3/4A protease time-resolved fluorescence (TRF) assay, Ki against genotype 1b; format: biochemical
In short: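 NS3/4A enzyme was preincubated 30 min with inhibitor in 50 mM HEPES pH 7.5, 150 mM NaCl, 15% glycerol, 0.15% Triton X-100, 10 mM DTT, 0.1% PEG 8000; 25 nM europium TRF peptide substrate added, 2.5 h at room temperature. Enzyme: 0.2 nM (1b), 0.4 nM (A156T), 0.025 nM (3a). Ki from IC50 via Cheng-Prusoff.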

[2] = system: HCV genotype 1b replicon; test: HCV replicon assay, genotype 1b replicon EC50; format: cell-based, Hepatitis C virus; settings: read-out: EC50 [gt-1b]
In short: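 Compound dilution series incubated 24-48 h, G418 absent, with HCV genotype 1b replicon cell lines kept under G418 selection beforehand. Luciferase signal or replicon RNA, by ^32P hybridization/protection or TaqMan normalized to cyclophilin A, was measured after washing and lysis. Four-parameter fitting against DMSO control gave EC50.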

[3] = IC50 [gt-1b], NS3/4A protease TRF assay, genotype 1b enzyme 0.2 nM
[4] = Hepatitis C virus, HCV replicon, genotype 1b
[5] = IC50 [gt-1b], NS3/4A protease TRF assay, genotype 1b enzyme 0.2 nM, K+ salt
[6] = IC50 [gt-1b] (nM), NS3/4A genotype 1b, enzyme 0.2 nM, K+ salt
[7] = Hepatitis C virus, genotype 1b replicon, K+ salt
[8] = IC50 [gt-1b] (nM), NS3/4A genotype 1b, enzyme 0.2 nM
[9] = Hepatitis C virus, genotype 1b replicon

COc1ccc2nc(C)c3c(c2n1)CC[C@]1(C[C@H]2C(=O)N[C@]4(C(=O)NS(=O)(=O)C5(C)CC5)C[C@H]4/C=C\CCCCC[C@H](NC(=O)OCC(C)C)C(=O)N2C1)O3 [Example 362, 2-methylpropyl [(2R,6S,12Z,13aS,14aR,16aS)-2′-methoxy-6′-methyl-14a-{[(1-methylcyclopropyl)sulfonyl]carbamoyl}-5,16-dioxo-1,5,6,7,8,9,9′,10,10′,11,13a,14,14a,15,16,16a-hexadecahydrospiro[cyclopropa[e]pyrrolo[1,2-a][1,4]diazacyclopentadecine-2,8′-pyrano[2,3-c][1,5]naphthyridin]-6-yl]carbamate]
IC50 [1, 3]: 0.008 nM | EC50 [2, 4]: 4.07 nM

COc1ccc2nc(C)c3c(c2c1)CC[C@]1(C[C@H]2C(=O)N[C@]4(C(=O)NS(=O)(=O)C5(C)CC5)C[C@H]4/C=C\CCCCC[C@H](NC(=O)OC(C(C)C)C(F)(F)F)C(=O)N2C1)O3 (stereo partly drawn) [Example 408, 1,1,1-trifluoro-3-methylbutan-2-yl [(2R,6S,12Z,13aS,14aR,16aS)-9′-methoxy-5′-methyl-14a-{[(1-methylcyclopropyl)sulfonyl]carbamoyl}-5,16-dioxo-1,1′,2′,5,6,7,8,9,10,11,13a,14,14a,15,16,16a-hexadecahydrospiro[cyclopropa[e]pyrrolo[1,2-a][1,4]diazacyclopentadecine-2,3′-pyrano[2,3-c]quinolin]-6-yl]carbamate]
IC50 [1, 5]: 0.023 nM | EC50 ([2]; HCV replicon, genotype 1b, K+ salt): 1.23 nM

Cc1nc2ccc(OC(F)(F)F)cc2c2c1O[C@]1(CC2)C[C@H]2C(=O)N[C@]3(C(=O)NS(=O)(=O)C4(C)CC4)C[C@H]3/C=C\CCCCC[C@H](NC(=O)OC(C)(C)CCS(C)(=O)=O)C(=O)N2C1 [Example 226, 2-methyl-4-(methylsulfonyl)butan-2-yl [(2R,6S,12Z,13aS,14aR,16aS)-5′-methyl-14a-{[(1-methylcyclopropyl)sulfonyl]carbamoyl}-5,16-dioxo-9′-(trifluoromethoxy)-1,1′,2′,5,6,7,8,9,10,11,13a,14,14a,15,16,16a-hexadecahydrospiro[cyclopropa[e]pyrrolo[1,2-a][1,4]diazacyclopentadecine-2,3′-pyrano[2,3-c]quinolin]-6-yl]carbamate]
IC50 [1, 6]: 0.021 nM | EC50 [2, 7]: 18 nM

COCC1(S(=O)(=O)NC(=O)[C@@]23C[C@H]2/C=C\CCCCC[C@H](NC(=O)C2CCC(=O)N(C)C2)C(=O)N2C[C@@]4(CCc5c(c(C(F)(F)F)nc6ccc(OC)cc56)O4)C[C@H]2C(=O)N3)CC1 (stereo partly drawn) [Example 500, (2R,6S,12Z,13aS,14aR,16aS)-9′-methoxy-N-{[1-(methoxymethyl)cyclopropyl]sulfonyl}-6-{[(1-methyl-6-oxopiperidin-3-yl)carbonyl]amino}-5,16-dioxo-5′-(trifluoromethyl)-1,1′,2′,6,7,8,9,10,11,13a,14,15,16,16a-tetradecahydrospiro[cyclopropa[e]pyrrolo[1,2-a][1,4]diazacyclopentadecine-2,3′-pyrano[2,3-c]quinoline]-14a(5H)-carboxamide]
IC50 [1, 3]: 0.014 nM | EC50 [2, 4]: 435 nM

Cc1nc2ccc(OCC(F)(F)F)cc2c2c1O[C@]1(CC2)C[C@H]2C(=O)N[C@]3(C(=O)NS(=O)(=O)C4(C)CC4)C[C@H]3/C=C\CCCCC[C@H](NC(=O)OC(C)(C)C(F)(F)F)C(=O)N2C1 [Example 301, 1,1,1-trifluoro-2-methylpropan-2-yl [(2R,6S,12Z,13aS,14aR,16aS)-5′-methyl-14a-{[(1-methylcyclopropyl)sulfonyl]carbamoyl}-5,16-dioxo-9′-(2,2,2-trifluoroethoxy)-1,1′,2′,5,6,7,8,9,10,11,13a,14,14a,15,16,16a-hexadecahydrospiro[cyclopropa[e]pyrrolo[1,2-a][1,4]diazacyclopentadecine-2,3′-pyrano[2,3-c]quinolin]-6-yl]carbamate]
IC50 [1, 8]: 0.013 nM | EC50 [2, 9]: 3.46 nM

Cc1nc2ccccc2c2c1O[C@]1(CC2)C[C@H]2C(=O)N[C@]3(C(=O)NS(=O)(=O)C4(C)CC4)C[C@H]3/C=C\CCCCC[C@H](N(CCc3ccccc3)CCc3ccccc3)C(=O)N2C1 [Example 173, (2R,6S,12Z,13aS,14aR,16aS)-6-[bis(2-phenylethyl)amino]-5′-methyl-N-[(1-methylcyclopropyl)sulfonyl]-5,16-dioxo-1,1′,2′,6,7,8,9,10,11,13a,14,15,16,16a-tetradecahydrospiro[cyclopropa[e]pyrrolo[1,2-a][1,4]diazacyclopentadecine-2,3′-pyrano[2,3-c]quinoline]-14a(5H)-carboxamide]
IC50 [1, 8]: 6.27 nM | EC50 [2, 9]: > 100 nM

Cc1nc2ccccc2c2c1O[C@]1(CC2)C[C@H]2C(=O)N[C@]3(C(=O)NS(=O)(=O)C4(C)CC4)C[C@H]3/C=C\CCCCC[C@H](NC(=O)OCCF)C(=O)N2C1 [Example 127, 2-fluoroethyl [(2R,6S,12Z,13aS,14aR,16aS)-5′-methyl-14a-{[(1-methylcyclopropyl)sulfonyl]carbamoyl}-5,16-dioxo-1,1′,2′,5,6,7,8,9,10,11,13a,14,14a,15,16,16a-hexadecahydrospiro[cyclopropa[e]pyrrolo[1,2-a][1,4]diazacyclopentadecine-2,3′-pyrano[2,3-c]quinolin]-6-yl]carbamate]
IC50 [1, 8]: 0.031 nM | EC50 [2, 9]: 0.394 nM

Cc1nc2ccccc2c2c1O[C@]1(CC2)C[C@H]2C(=O)N[C@]3(C(=O)NS(=O)(=O)C4(C)CC4)C[C@H]3/C=C\CCCCC[C@H](NC(=O)NC3CCCC3)C(=O)N2C1 [Example 283, (2R,6S,12Z,13aS,14aR,16aS)-6-[(cyclopentylcarbamoyl)amino]-5′-methyl-N-[(1-methylcyclopropyl)sulfonyl]-5,16-dioxo-1,1′,2′,6,7,8,9,10,11,13a,14,15,16,16a-tetradecahydrospiro[cyclopropa[e]pyrrolo[1,2-a][1,4]diazacyclopentadecine-2,3′-pyrano[2,3-c]quinoline]-14a(5H)-carboxamide]
IC50 ([1]; IC50 [gt-1b] (nM), NS3/4A genotype 1b, enzyme 0.2 nM, HCOOH salt): 0.012 nM | EC50 ([2]; Hepatitis C virus, genotype 1b replicon, HCOOH salt): 19 nM

CCc1ccc2nc(C)c3c(c2c1)C(F)C[C@]1(C[C@H]2C(=O)N[C@]4(C(=O)NS(=O)(=O)C5(C)CC5)C[C@H]4/C=C\CCCCC[C@H](NC(=O)OC(C)(C)C)C(=O)N2C1)O3 (single isomer, unassigned) [Example 315]
IC50 [1, 8]: 1.29 nM | EC50 ([2]; genotype 1b replicon): 294 nM

COCCCOc1ccc2nc(C(F)(F)F)c3c(c2c1)CC[C@]1(C[C@H]2C(=O)N[C@]4(C(=O)NS(=O)(=O)C5(C)CC5)C[C@H]4/C=C\CCCCC[C@H](NC(=O)OC(C)(C)C)C(=O)N2C1)O3 [Example 51, tert-Butyl ((2R,6S,13aS,14aR,16aS,Z)-9′-(3-methoxypropoxy)-14a-(((1-methylcyclopropyl)sulfonyl)carbamoyl)-5,16-dioxo-5′-(trifluoromethyl)-1′,2′,3,5,6,7,8,9,10,11,13a, 14,14a,15,16,16a-hexadecahydro-1H-spiro[cyclopropa[e]pyrrolo[1,2-a][1,4]diazacyclopentadecine-2,3′-pyrano[2,3-c]quinolin]-6-yl)carbamate]
IC50 [1, 6]: 0.011 nM | EC50 [2, 7]: 0.246 nM

[2H]C([2H])(F)Oc1ccc2nc(C)c3c(c2c1)[C@H](F)C[C@]1(C[C@H]2C(=O)N[C@]4(C(=O)NS(=O)(=O)C5(C)CC5)C[C@H]4/C=C\CCCCC[C@H](NC(=O)OCC(C)C)C(=O)N2C1)O3 [Example 402, 2-methylpropyl [(1′R,2S,6S,12Z,13aS,14aR,16aS)-1′-fluoro-9′-{[fluoro(^2H2)methyl]oxy}-5′-methyl-14a-{[(1-methylcyclopropyl)sulfonyl]carbamoyl}-5,16-dioxo-1,1′,2′,5,6,7,8,9,10,11,13a,14,14a,15,16,16a-hexadecahydrospiro[cyclopropa[e]pyrrolo[1,2-a][1,4]diazacyclopentadecine-2,3′-pyrano[2,3-c]quinolin]-6-yl]carbamate]
IC50 [1, 5]: 0.011 nM | EC50 ([2]; Hepatitis C virus, HCV replicon, genotype 1b, K+ salt): 2.27 nM

CC(C)(OC(=O)N[C@H]1CCCCC/C=C\[C@@H]2C[C@@]2(C(=O)NS(=O)(=O)C2(C)CC2)NC(=O)[C@@H]2C[C@]3(CCc4c(c(C(F)(F)F)nc5ccc(Cl)cc45)O3)CN2C1=O)C(F)(F)F [Example 387, 1,1,1-trifluoro-2-methylpropan-2-yl [(2R,6S,12Z,13aS,14aR,16aS)-9′-chloro-14a-{[(1-methylcyclopropyl)sulfonyl]carbamoyl}-5,16-dioxo-5′-(trifluoromethyl)-1,1′,2′,5,6,7,8,9,10,11,13a,14,14a,15,16,16a-hexadecahydrospiro[cyclopropa[e]pyrrolo[1,2-a][1,4]diazacyclopentadecine-2,3′-pyrano[2,3-c]quinolin]-6-yl]carbamate]
IC50 [1, 3]: 0.038 nM | EC50 [2, 4]: 20.1 nM

CC(C)(C)OC(=O)N[C@H]1CCCCC/C=C\C2CC2(C(=O)NS(=O)(=O)C2(C)CC2)NC(=O)C2C[C@]3(CCc4c(c(C5CC5)nc5c(F)cccc45)O3)CN2C1=O (stereo partly drawn) [Example 69, tert-butyl [(2R,6S,12Z)-5′-cyclopropyl-7′-fluoro-14a-{[(1-methylcyclopropyl)sulfonyl]carbamoyl}-5,16-dioxo-1,1′,2′,5,6,7,8,9,10,11,13a,14,14a,15,16,16a-hexadecahydrospiro[cyclopropa[e]pyrrolo[1,2-a][1,4]diazacyclopentadecine-2,3′-pyrano[2,3-c]quinolin]-6-yl]carbamate]
IC50 [1, 6]: 0.012 nM | EC50 [2, 7]: 0.82 nM
